# Experimental data taken from patent US5840745A, “Hydrosoluble 3-arylidene-2-oxindole derivatives as tyrosine kinase inhibitors” (Pharmacia S. p. A., priority 1995, dated 1998).
# Counter-ions that a name gives are not always drawn.
# Experiments:
# [1] = molecular target: p45 v-abl tyrosine kinase; assay: in vitro p45 v-abl kinase assay ((Val^5)-Angiotension II phosphorylation); format: biochemical, Abelson murine leukaemia virus; settings: 40 ng purified abl-kinase; peptide (2 Mm) and ATP (50 μM); 30° C., pH 8.0; triplicated determinations; read-out: IC50 v-abl, inhibition of p45 v-abl kinase
# Description: p45 v-abl Kinase Purification
# The enzyme used in our test was the p45 v-abl tyrosine kinase which represents the catalytic domain of the Abelson tyrosine kinase (isolated from the Abelson murine leukaemia virus). The p45 v-abl kinase was produced and isolated as described by Wang et al. in J. Biol. Chem. 260, 64 (1985) and by Ferguson et al. in J. Biol. Chem. 260, 3652 (1985) and in Biochem. J. 257, 321 (1989).
# (Val^5)-Angiotension II phosphorylation was performed by incubation with 40 ng of purified abl-kinase and (γ-^32 p)-ATP, in 50 μl of buffer containing Tris-HCl 25 mM, pH 8.0, MgCl2 10 mM and dithiothreitol 0.1 mM (kinase buffer). The reaction mixture was incubated for the indicated time at 30° C. and the reaction stopped by adding 50 μl of 5% trichloroacetic acid. After a brief incubation on ice, tubes were centrifuged. The supernatants were spotted on phosphocellulose paper squares (Whatman P-81) and washed extensively in acetic acid. The radioactivity bound to dried phosphocellulose squares was measured in a liquid scintillation counter. IC50 values were calculated from triplicated determinations of each experimental point. Each inhibitor was tested at concentrations ranging from […] in the presence of fixed concentrations of peptide (2 Mm) and ATP (50 μM). […]
# [2] = test system: K562 cells (human chronic myeloid leukemia); assay: K562 cell growth inhibition assay; format: cell-based; settings: 72 h, 10000 cells/well, cell count versus untreated control cells
# Description: K562 Cell Growth Inhibition Assay
# K562 cells, a human myelogenous leukemia cell line, were seeded into a 24 wells tissue culture plate (Falcon 3047) (10000/well) in the presence of increasing concentrations of the compounds. After 72 h, cells were harvested and were counted using a cell counter (Coulter Counter--ZM). The percent of inhibition was evaluated in respect to the untreated control cells.
# The inhibitory activity data for two representative compounds according to the present invention, obtained both in the in vitro p45 v-abl kinase assay and the in vivo human chronic myeloid leukemia K562 cell growth inhibition assay described above, are set out in the following Table I.
Compound,IC50 [1],IC50 [2]
COc1ccc2[nH]cc(C=C3C(=O)Nc4ccc(NC(=O)CCN5CCCCC5)cc43)c2c1 [5-(3-piperidinopropionylamino)-3-(5-methoxyindol-3-ylmethylene)-2-oxindole.HCl],1730 nM,3700 nM
CCOC(=O)c1ccc2c(c1)C(=Cc1c[nH]c3ccc(OC)cc13)C(=O)N2 [5-carboethoxy-3-(5-methoxyindol-3-ylmethylene)-2-oxindole],1990 nM,2340 nM
